Laboratory results from patent US9365550B2, “Benzimidazoles as CNS active agents” (Hoffmann-La Roche Inc., priority 2012, dated 2016).

Legend:
[1] = system: human embryonic stem cell derived neural stem cells (NSCs); experiment: Neural stem cell proliferation assay (neurogenesis assay, ATP/CellTiterGlo); type: cell-based; conditions: 96 h, compound concentration at which 150% activity of control (100%) is reached, NSC proliferation by ATP level after 4 days incubation, dose response 8 μM to 8 nM
Experimental: Neural Stem Cell Proliferation Assay
Neurogenic properties of small molecules are determined based on the proliferation of human embryonic stem cell derived neural stem cells (NSCs) which were derived via a dual smad inhibition as previously described (Chambers, S. M., et al., Highly efficient neural conversion of human ES and iPS cells by dual inhibition of SMAD signaling, Nature biotechnology, 2009. 27(3): p. 275-80.)
Compounds respond is measured by the increase in cells based on ATP levels (Promega:CellTiterGlo®) after an incubation period of 4 days.
NSCs are thawed and expanded over 3 passages. On the 14th day, NSCs are seeded in Polyornithin/Laminin coated 384 well plates at a cell density of 21,000 cells/cm^2 in a media volume of 38 μL.
4 hours after cell seeding, compound solutions are added at a volume of 2 μl. Stock solutions of the compounds (water, 5% DMSO) are diluted to obtain a dose response (11 points, dilution factor is 2), ranging from 8 μM to 8 nM. Controls are run to consistently determine the neurogenic properties of the cells:
Negative (neutral) control is cell culture Media (final DMSO concentration: 0.25%).
Positive controls are: • 1. cell culture Media+100 ng/ml FGF2 (final DMSO concentration: 0.1%) • 2. cell culture Media+20 ng/ml EGF (final DMSO concentration: 0.1%) • 3. cell culture Media+100 ng/ml Wnt3a (final DMSO concentration: 0.1%)
After 4 days incubation at 37° C., 5% CO2, the amount of ATP per well is quantified. The ATP concentration is proportional to the cell number. ATP is quantified by using the Promega CellTiterGlo® kit. The CellTiterGlo® reagents contain a cell lysis buffer, a thermo stable luciferase (UltraGlo™ recombinant luciferase), magnesium and luciferin. Luciferin reacts with ATP producing oxyluciferin, AMP and light. The luminescence signal is proportional to the ATP content.
The value of negative (neutral) control is determined for each assay plate by taking the average of 16 negative control wells. The neurogenic compound response is calculated for each compound as (compound/Negative Control)*100.
The values of EC150 from the dose response curve are determined for each test compound. The EC150 is the compound concentration at which 150% activity of control (100%) is reached.

Row | Structure (SMILES) | melting point | EC150 [1]
1 | c1ccc(-n2nccc2-c2ccc3ncn(-c4ccccc4)c3c2)cc1 [Example 2, 1-Phenyl-6-(2-phenyl-2H-pyrazol-3-yl)-1H-benzoimidazole] | 194 °C | 0.014 µM
2 | Cc1ccc(-n2nccc2-c2ccc3ncn(-c4ccccc4)c3c2)cc1 [Example 4, 1-Phenyl-6-(2-p-tolyl-2H-pyrazol-3-yl)-1H-benzoimidazole] |  | 0.015 µM
3 | Cc1ccc(-n2nccc2-c2ccc3ncn(-c4ccc(F)cc4)c3c2)cc1 [Example 9, 1-(4-Fluoro-phenyl)-6-(2-p-tolyl-2H-pyrazol-3-yl)-1H-benzoimidazole] |  | 0.009 µM
4 | FC(F)(F)c1ccc(-n2nccc2-c2ccc3ncn(-c4ccc(Cl)cc4)c3c2)cc1 [Example 12, 1-(4-Chloro-phenyl)-6-[2-(4-trifluoromethyl-phenyl)-2H-pyrazol-3-yl]-1H-benzoimidazole] | 198 °C | 0.71 µM
5 | FC(F)(F)c1ccc(-n2cnc3ccc(-c4ccnn4-c4ccc(Cl)cc4)cc32)cc1 [Example 14, 6-[2-(4-Chloro-phenyl)-2H-pyrazol-3-yl]-1-(4-trifluoromethyl-phenyl)-1H-benzoimidazole] | 196 °C | 0.62 µM
6 | Fc1ccc(-n2cnc3ccc(-c4ccnn4-c4ccc(C(F)(F)F)cc4)cc32)c(F)c1 [Example 15, 1-(2,4-Difluoro-phenyl)-6-[2-(4-trifluoromethyl-phenyl)-2H-pyrazol-3-yl]-1H-benzoimidazole] | 129 °C | 1.33 µM
7 | Fc1ccc(-n2cnc3ccc(-c4ccnn4-c4ccc(Cl)cc4)cc32)c(F)c1 [Example 16, 6-[2-(4-Chloro-phenyl)-2H-pyrazol-3-yl]-1-(2,4-difluoro-phenyl)-1H-benzoimidazole] | 133 °C | 0.19 µM
8 | Fc1cc(Cl)ccc1-n1cnc2ccc(-c3ccnn3-c3ccc(Cl)cc3)cc21 [Example 23, 1-(4-Chloro-2-fluoro-phenyl)-6-[2-(4-chloro-phenyl)-2H-pyrazol-3-yl]-1H-benzoimidazole] | 158 °C | 0.17 µM
9 | COc1ccc(-n2cnc3ccc(-c4ccnn4-c4ccc(Cl)cc4)cc32)cc1 [Example 25, 6-[2-(4-Chloro-phenyl)-2H-pyrazol-3-yl]-1-(4-methoxy-phenyl)-1H-benzoimidazole] | 163 °C | 0.056 µM
10 | CS(=O)(=O)c1ccc(-n2cnc3ccc(-c4ccnn4-c4ccc(Cl)cc4)cc32)cc1 [Example 27, 6-[2-(4-Chloro-phenyl)-2H-pyrazol-3-yl]-1-(4-methanesulfonyl-phenyl)-1H-benzoimidazole] | 280 °C | 0.16 µM
11 | Fc1ccc(-n2cnc3ccc(-c4cncn4-c4ccccc4)cc32)cc1 [Example 28, 1-(4-Fluoro-phenyl)-6-(3-phenyl-3H-imidazol-4-yl)-1H-benzoimidazole] | 216 °C | 0.07 µM
12 | Fc1ccc(-n2cnc3ccc(-c4cncn4-c4ccc(Cl)cc4)cc32)cc1 [Example 29, 6-[3-(4-Chloro-phenyl)-3H-imidazol-4-yl]-1-(4-fluoro-phenyl)-1H-benzoimidazole] | 254 °C | 0.074 µM
13 | Fc1ccc(-n2cncc2-c2ccc3ncn(-c4ccc(F)cc4)c3c2)cc1 [Example 30, 1-(4-Fluoro-phenyl)-6-[3-(4-fluoro-phenyl)-3H-imidazol-4-yl]-1H-benzoimidazole] | 247 °C | 0.11 µM

The next lines start with results.

Row | melting point | Structure (SMILES) | EC150 [1]
14 | 165 °C | Cc1ccc(-n2nccc2-c2ccc3ncn(-c4ccc(C)cc4)c3c2)cc1 [Example 1, 1-p-Tolyl-6-(2-p-tolyl-2H-pyrazol-3-yl)-1H-benzoimidazole] | 0.008 µM
15 | 201 °C | Fc1ccc(-n2nccc2-c2ccc3ncn(-c4ccccc4)c3c2)cc1 [Example 3, 6-[2-(4-Fluoro-phenyl)-2H-pyrazol-3-yl]-1-phenyl-1H-benzoimidazole] | 0.024 µM
16 | 146 °C | Cc1ccc(-n2cnc3ccc(-c4ccnn4-c4ccccc4)cc32)cc1 [Example 5, 6-(2-Phenyl-2H-pyrazol-3-yl)-1-p-tolyl-1H-benzoimidazole] | 0.0165 µM
17 | 149 °C | Cc1ccc(-n2cnc3ccc(-c4ccnn4-c4ccc(F)cc4)cc32)cc1 [Example 6, 6-[2-(4-Fluoro-phenyl)-2H-pyrazol-3-yl]-1-p-tolyl-1H-benzoimidazole] | 0.0195 µM
18 | 194 °C | Fc1ccc(-n2cnc3ccc(-c4ccnn4-c4ccccc4)cc32)cc1 [Example 7, 1-(4-Fluoro-phenyl)-6-(2-phenyl-2H-pyrazol-3-yl)-1H-benzoimidazole] | 0.031 µM
19 | 173 °C | Fc1ccc(-n2nccc2-c2ccc3ncn(-c4ccc(F)cc4)c3c2)cc1 [Example 8, 1-(4-Fluoro-phenyl)-6-[2-(4-fluoro-phenyl)-2H-pyrazol-3-yl]-1H-benzoimidazole] | 0.044 µM
20 | 167 °C | Fc1ccc(-n2cnc3ccc(-c4ccnn4-c4ccc(C(F)(F)F)cc4)cc32)cc1 [Example 10, 1-(4-Fluoro-phenyl)-6-[2-(4-trifluoromethyl-phenyl)-2H-pyrazol-3-yl]-1H-benzoimidazole] | 1.1 µM
21 | 180 °C | Fc1ccc(-n2cnc3ccc(-c4ccnn4-c4ccc(Cl)cc4)cc32)cc1 [Example 11, 6-[2-(4-Chloro-phenyl)-2H-pyrazol-3-yl]-1-(4-fluoro-phenyl)-1H-benzoimidazole] | 0.11 µM
22 | 182 °C | Clc1ccc(-n2nccc2-c2ccc3ncn(-c4ccc(Cl)cc4)c3c2)cc1 [Example 13, 1-(4-Chloro-phenyl)-6-[2-(4-chloro-phenyl)-2H-pyrazol-3-yl]-1H-benzoimidazole] | 0.082 µM
23 | 152 °C | Fc1ccc(-n2nccc2-c2ccc3ncn(-c4ccc(F)cc4F)c3c2)cc1 [Example 17, 1-(2,4-Difluoro-phenyl)-6-[2-(4-fluoro-phenyl)-2H-pyrazol-3-yl]-1H-benzoimidazole] | 0.047 µM
24 | 204 °C | Fc1ccc(-n2nccc2-c2ccc3ncn(-c4ccc(C(F)(F)F)cc4)c3c2)cc1 [Example 18, 6-[2-(4-Fluoro-phenyl)-2H-pyrazol-3-yl]-1-(4-trifluoromethyl-phenyl)-1H-benzoimidazole] | 0.41 µM
25 | 173 °C | Fc1ccc(-n2nccc2-c2ccc3ncn(-c4ccc(Cl)cc4)c3c2)cc1 [Example 19, 1-(4-Chloro-phenyl)-6-[2-(4-fluoro-phenyl)-2H-pyrazol-3-yl]-1H-benzoimidazole] | 0.09 µM
26 | 199 °C | Fc1ccc(-n2nccc2-c2ccc3ncn(-c4ccncc4)c3c2)cc1 [Example 20, 6-[2-(4-Fluoro-phenyl)-2H-pyrazol-3-yl]-1-pyridin-4-yl-1H-benzoimidazole] | 0.044 µM
27 | 203 °C | Clc1ccc(-n2nccc2-c2ccc3ncn(-c4ccncc4)c3c2)cc1 [Example 21, 6-[2-(4-Chloro-phenyl)-2H-pyrazol-3-yl]-1-pyridin-4-yl-1H-benzoimidazole] | 0.036 µM
28 | 153 °C | Fc1ccc(-n2nccc2-c2ccc3ncn(-c4ccc(Cl)cc4F)c3c2)cc1 [Example 22, 1-(4-Chloro-2-fluoro-phenyl)-6-[2-(4-fluoro-phenyl)-2H-pyrazol-3-yl]-1H-benzoimidazole] | 0.084 µM
29 | 143 °C | COc1ccc(-n2cnc3ccc(-c4ccnn4-c4ccc(F)cc4)cc32)cc1 [Example 24, 6-[2-(4-Fluoro-phenyl)-2H-pyrazol-3-yl]-1-(4-methoxy-phenyl)-1H-benzoimidazole] | 0.021 µM
30 | 247 °C | CS(=O)(=O)c1ccc(-n2cnc3ccc(-c4ccnn4-c4ccc(F)cc4)cc32)cc1 [Example 26, 6-[2-(4-Fluoro-phenyl)-2H-pyrazol-3-yl]-1-(4-methanesulfonyl-phenyl)-1H-benzoimidazole] | 0.28 µM
